Patent EP0233105A1 (priority 1986, dated 1987)
In brackets after ≈: the same amount, converted by molar mass.

Key:
[1] = Lethal dose 50% (inhibition of growth of normal cells); type: cell-based; conditions: monkey; concentration inhibiting 50% of growth of normal VERO cells; no unit in table, test concentrations given in microgrammes/ml; read-out: DL50 (the source's name)
Description: On a par ailleurs déterminé la dose léthale 50% (DL50) la dose efficace 90% et 99% (DE90 et DE99) et l'indice thérapeutique 90 et 99 (IT90 et IT99) en utilisant les méthodes suivantes :
Les composés ont été préparés à la dose 1 mg/ml dans unvolume maximal de 0,1 ml de diméthyl- sulfoxyde et addition jusqu'à 12 ml d'un milieu de maintenance M-2. Les dilutions ont été effectuées avec le milieu de maintenance M-2.
La DL50 est la concentration à laquelle 50% de la croissance des cellules normales est inhibée. Pour cette détermination on a utilisé 5.10^5 cellules VERO en suspension dans 10 ml de milieu E199 additionné de 6% de sérum de veau (CS) et de gentamycine(20 microgrammes/ml). Les composés ont été ajoutés pour obtenir des concentrations finales de 200;100;-75;50;25;10;5;3;2;1;0,1 et 0,01 microgrammes/ml.

virus (Polio type I) = experiment: microbe, parasite or virus in culture; type: cell-based; conditions: for EC90 / EC99: Vero; for EC90: read-out: DE90; for EC99: read-out: DE 99; for IT90: therapeutic index = DL50 divided by DE90; for IT99: therapeutic index = DL50 divided by DE99

COc1ccc(-c2oc3c(OC)c(OC)c(OC)c(OC)c3c(=O)c2OC)cc1OC [3,3',4',5,6,7,8-heptaméthoxyflavone]
CC50 [1]: 200 µg/mL (≈ 463 µM) | EC90 (virus (Polio type I)): 20 µg/mL (≈ 46.3 µM) | EC99 (virus (Polio type I)): 25 µg/mL | IT90 (virus (Polio type I)): 10 | IT99 (virus (Polio type I)): 8

COc1ccc(-c2oc3cc(OC)c(OC)c(OC)c3c(=O)c2OC)cc1OC [3,3',4',5,6,7-hexaméthoxyflavone]
CC50 [1]: 200 µg/mL (≈ 497 µM) | EC90 (virus (Polio type I)): 100 µg/mL (≈ 249 µM) | EC99 (virus (Polio type I)): 200 µg/mL | IT90 (virus (Polio type I)): 2 | IT99 (virus (Polio type I)): 1

COc1ccc(-c2oc3c(OC)c(OC)c(OC)c(O)c3c(=O)c2OC)cc1OC [3,3',4',6,7,8-hexaméthoxy-5-hydroxyflavone]
CC50 [1]: 200 µg/mL (≈ 478 µM) | EC90 (virus (Polio type I)): 20 µg/mL (≈ 47.8 µM) | EC99 (virus (Polio type I)): 25 µg/mL | IT90 (virus (Polio type I)): 10 | IT99 (virus (Polio type I)): 8

COc1ccc(-c2oc3cc(O)c(OC)c(O)c3c(=O)c2OC)cc1 [3,4',6-triméthoxy-5,7-dihydroxyflavone]
CC50 [1]: 50 µg/mL (≈ 145 µM) | EC90 (virus (Polio type I)): 1 µg/mL (≈ 2.9 µM) | EC99 (virus (Polio type I)): 10 µg/mL | IT90 (virus (Polio type I)): 50 | IT99 (virus (Polio type I)): 5

COc1ccc(-c2oc3ccc(OC)cc3c(=O)c2OC)cc1 [3,4',6-triméthoxyflavone]
CC50 [1]: 100 µg/mL (≈ 320 µM) | EC90 (virus (Polio type I)): 2 µg/mL (≈ 6.4 µM) | EC99 (virus (Polio type I)): 50 µg/mL | IT90 (virus (Polio type I)): 50 | IT99 (virus (Polio type I)): 2

COc1ccc(-c2oc3ccc(O)cc3c(=O)c2OC)cc1 [3,4'-diméthoxy-6-hydroxyflavone]
CC50 [1]: 200 µg/mL (≈ 670 µM) | EC90 (virus (Polio type I)): 100 µg/mL (≈ 335 µM) | EC99 (virus (Polio type I)): 200 µg/mL | IT90 (virus (Polio type I)): 2 | IT99 (virus (Polio type I)): 1

COc1c(-c2ccc(O)cc2)oc2cccc(OC)c2c1=O [3,5-diméthoxy-4'-hydroxyflavone]
CC50 [1]: 150 µg/mL (≈ 503 µM) | EC90 (virus (Polio type I)): 5 µg/mL (≈ 16.8 µM) | EC99 (virus (Polio type I)): 10 µg/mL | IT90 (virus (Polio type I)): 30 | IT99 (virus (Polio type I)): 15

COc1cc2oc(-c3ccc(O)cc3)c(OC)c(=O)c2c(O)c1OC [3,6,7-triméthoxy-4',5-dihydroxyflavone]
CC50 [1]: 100 µg/mL (≈ 290 µM) | EC90 (virus (Polio type I)): 0.5 µg/mL (≈ 1.45 µM) | EC99 (virus (Polio type I)): 5 µg/mL | IT90 (virus (Polio type I)): 200 | IT99 (virus (Polio type I)): 20

COc1c(O)cc2oc(-c3ccc(O)cc3)c(OC)c(=O)c2c1O [3,6-diméthoxy-4',5,7-trihydroxyflavone]
CC50 [1]: 20 µg/mL (≈ 60.6 µM) | EC90 (virus (Polio type I)): 0.5 µg/mL (≈ 1.51 µM) | EC99 (virus (Polio type I)): 1 µg/mL | IT90 (virus (Polio type I)): 40 | IT99 (virus (Polio type I)): 20

COc1ccc2oc(-c3ccc(O)cc3)c(OC)c(=O)c2c1 [3,6-diméthoxy-4'-hydroxyflavone]
CC50 [1]: 200 µg/mL (≈ 670 µM) | EC90 (virus (Polio type I)): 7 µg/mL (≈ 23.5 µM) | EC99 (virus (Polio type I)): 25 µg/mL | IT90 (virus (Polio type I)): 29 | IT99 (virus (Polio type I)): 8

COc1ccc2c(=O)c(OC)c(-c3ccc(O)cc3)oc2c1 [3,7-diméthoxy-4'-hydroxyflavone]
CC50 [1]: 25 µg/mL (≈ 83.8 µM) | EC90 (virus (Polio type I)): 1 µg/mL (≈ 3.35 µM) | EC99 (virus (Polio type I)): 5 µg/mL | IT90 (virus (Polio type I)): 25 | IT99 (virus (Polio type I)): 5

COc1c(-c2ccc(O)cc2)oc2c(OC)cccc2c1=O [3,8-diméthoxy-4'-hydroxyflavone]
CC50 [1]: 25 µg/mL (≈ 83.8 µM) | EC90 (virus (Polio type I)): 10 µg/mL (≈ 33.5 µM) | EC99 (virus (Polio type I)): 20 µg/mL | IT90 (virus (Polio type I)): 2,5 | IT99 (virus (Polio type I)): 1,2

COc1c(-c2ccc(O)cc2)oc2ccc(O)cc2c1=O [3-méthoxy-4',6-dihydroxyflavone]
CC50 [1]: 3 µg/mL (≈ 10.6 µM) | EC90 (virus (Polio type I)): 0.5 µg/mL (≈ 1.76 µM) | EC99 (virus (Polio type I)): 2 µg/mL | IT90 (virus (Polio type I)): 6 | IT99 (virus (Polio type I)): 1,5

COc1c(-c2ccc(OCc3ccccc3)cc2)oc2ccccc2c1=O [3-méthoxy-4'-benzyloxyflavone]
CC50 [1]: 100 µg/mL (≈ 279 µM) | EC90 (virus (Polio type I)): 30 µg/mL (≈ 83.7 µM) | EC99 (virus (Polio type I)): 100 µg/mL | IT90 (virus (Polio type I)): 3,3 | IT99 (virus (Polio type I)): 1

COc1c(-c2ccc(Cl)cc2)oc2cc(C)ccc2c1=O [3-méthoxy-4'-chloro-7-méthylflavone]
CC50 [1]: 10 µg/mL (≈ 33.3 µM) | EC90 (virus (Polio type I)): 10 µg/mL (≈ 33.3 µM) | EC99 (virus (Polio type I)): 20 µg/mL | IT90 (virus (Polio type I)): 1 | IT99 (virus (Polio type I)): 0.5

COc1c(-c2ccc(O)cc2)oc2ccc(Cl)cc2c1=O [3-méthoxy-4'-hydroxy-6-chloroflavone]
CC50 [1]: 100 µg/mL (≈ 330 µM) | EC90 (virus (Polio type I)): 2 µg/mL (≈ 6.61 µM) | EC99 (virus (Polio type I)): 6 µg/mL | IT90 (virus (Polio type I)): 50 | IT99 (virus (Polio type I)): 17

COc1c(-c2ccc(O)cc2)oc2ccc(C)cc2c1=O [3-méthoxy-4'-hydroxy-6-methylflavone]
CC50 [1]: 75 µg/mL (≈ 266 µM) | EC90 (virus (Polio type I)): 1 µg/mL (≈ 3.54 µM) | EC99 (virus (Polio type I)): 5 µg/mL | IT90 (virus (Polio type I)): 75 | IT99 (virus (Polio type I)): 15

COc1c(-c2ccc(O)cc2)oc2cc(Cl)ccc2c1=O [3-méthoxy-4'-hydroxy-7-chloroflavone]
CC50 [1]: 100 µg/mL (≈ 330 µM) | EC90 (virus (Polio type I)): 5 µg/mL (≈ 16.5 µM) | EC99 (virus (Polio type I)): 7 µg/mL | IT90 (virus (Polio type I)): 20 | IT99 (virus (Polio type I)): 14,3

COc1c(-c2ccc(O)cc2)oc2cc(F)ccc2c1=O [3-méthoxy-4'-hydroxy-7-fluoroflavone]
CC50 [1]: 20 µg/mL (≈ 69.9 µM) | EC90 (virus (Polio type I)): 1 µg/mL (≈ 3.49 µM) | EC99 (virus (Polio type I)): 6 µg/mL | IT90 (virus (Polio type I)): 20 | IT99 (virus (Polio type I)): 3,2

COc1c(-c2ccc(O)cc2)oc2cc(C)ccc2c1=O [3-méthoxy-4'-hydroxy-7-méthylflavone]
CC50 [1]: 25 µg/mL (≈ 88.6 µM) | EC90 (virus (Polio type I)): 0.5 µg/mL (≈ 1.77 µM) | EC99 (virus (Polio type I)): 2 µg/mL | IT90 (virus (Polio type I)): 50 | IT99 (virus (Polio type I)): 12,5

COc1c(-c2ccc(O)cc2)oc2ccccc2c1=O [3-méthoxy-4'-hydroxyflavone]
CC50 [1]: 10 µg/mL (≈ 37.3 µM) | EC90 (virus (Polio type I)): 3 µg/mL (≈ 11.2 µM) | EC99 (virus (Polio type I)): 6 µg/mL | IT90 (virus (Polio type I)): 3,3 | IT99 (virus (Polio type I)): 1.66
